{"source": "patent US10130713B2", "about": "“Cocrystalline DHEA formulations” (University of Houston System, priority 2013, dated 2018)", "format_in_all_cases": "physicochemical", "key": {"[1]": {"assay": "Dissolution study with DHEA concentration measured by HPLC over time", "conditions": "for solubility: aqueous dissolution study (pH 6.8 buffer, ambient temperature)", "procedure": "High performance liquid chromatography (HPLC) analyses were carried out on an Agilent 1100 series instrument equipped with a UV detector using the following materials and operating parameters:\nCalibration data used previously and standards analyzed prior to the samples were used to generate concentrations from peak areas.\nAt selected time points (10 minutes, 30 minutes, 1 hour, 2 hours, and 5 hours) the slurry was centrifuged and 700 μL of the liquid phase was withdrawn and passed through a 0.5 μm PTFE filter. The filtrate was concentrated in a purge of dry air until all the water evaporated, leaving a solid that was analyzed by HPLC. […] The pH of the filtrate was measured using a Thermo Scientific Orion 3 Star pH meter. The collected solid was analyzed by XRPD. […]\nFurther dissolution studies with concentration measurements at 10 minutes, 30 minutes, 1 hour, 2 hours, 5 hours, and overnight were conducted. Three such experiments were carried out, using DHEA polymorph form I (FI), the DHEA/D-fructose cocrystal, and the DHEA/glutaric acid cocrystal. […] All of the data are summarized in FIG. 10 through FIG. 14 and the data are plotted in FIG. 15 through FIG. 19.\nNote that in each of the plots shown in […] the results of two experiments (time points at <10 min and time points at >10 minutes) are shown on one graph. In order to better visualize the curves, the x axes are in logarithmic scales (FIGS. 15-17). The tables shown in FIGS. 12 and 13 were derived from single experiments having time points at <10 minutes. The x axes on those plots are in linear scales (FIGS. 18 and 19)."}, "[2]": {"assay": "Slurry of DHEA in simulated intestinal fluid, solid form by XRPD", "conditions": "about 3 hrs at room temperature, XRPD 3171"}, "[3]": {"assay": "Dissolution of formulation slurries (Plasdone S630 + Polysorbate 80) in simulated intestinal fluid", "conditions": "simulated intestinal fluid plus aqueous formulation slurry, aqueous with cosolvent or surfactant or cyclodextrin, thermodynamic from solid; SIF plus water containing 2% Plasdone S630 and 1% Polysorbate 80, 37° C.; read-out: equilibrium solubility in formulation/SIF system", "procedure": "Simulated intestinal fluid (SIF) was prepared by dissolving 21.6 mg of sodium hydroxide, 168.8 mg of sodium dihydrogen phosphate dihydrate, 311.6 mg of sodium chloride, and 113.0 mg of SIF Powder Original (Biorelevant) in 50 mL of water. A 100-mL, round-bottom flask was charged with 10 mL of SIF and a stir bar. The flask was placed in a 37° C. bath and stirring was begun. A 20-mL vial was charged with 10 mL of water and placed in a 37° C. bath.\nBased on the inhibitory effects found in the excipient screen, further studies with formulation slurries containing the cocrystals suspended in water were used, in which both Plasdone S-630 and Polysorbate 80 are dissolved. The formulation recipe and dissolution procedure are: bring 5 mL of simulated intestinal fluid (SIF) to 37° C., add about 6 mg of a cocrystal into 5 mL of water (at 37° C.) containing 2% Plasdone S630 and 1% Polysorbate 80 to give the formulation slurry, add the formulation slurry to the SIF, pull samples, filter, and analyze by HPLC. A control experiment was carried out in which DHEA was used instead of a cocrystal.\nFor FIGS. 44 and 45, to the […]-vial of SIF (20-mL vial was charged with 10 mL of water and placed in a 37° C. bath) 12.1 mg of DHEA (from sample TL876) was added. The vial was capped and shaken, and the resulting slurry was poured into the round-bottom flask. […] The supernatants were analyzed by HPLC. […]"}}, "note": "Where two headings read alike, the source gives them in different places."}
{"smiles": "C[C@]12CC[C@H](O)CC1=CC[C@@H]1[C@@H]2CC[C@]2(C)C(=O)CC[C@@H]12", "note": "[DHEA hydrate S1, Dehydroepiandrosterone]", "values": [{"measurement": "solubility", "setting": "[1]; listed as DHEA (form S1)", "result": "about 17 μg/mL"}, {"measurement": "solubility thermodynamic", "setting": "[1]; pH 6.8 phosphate buffer, pH 6.8, aqueous buffer, thermodynamic from solid, most stable form in the presence of water, read-out: equilibrium solubility", "result": 17, "unit": "µg/mL"}]}
{"smiles": "C[C@]12CC[C@H](O)CC1=CC[C@@H]1[C@@H]2CC[C@]2(C)C(=O)CC[C@@H]12", "note": "[DHEA polymorph form I (FI), Dehydroepiandrosterone]", "values": [{"measurement": "solid form after slurrying in SIF", "setting": "[2]", "result": "mostly the hydrate S1 form"}, {"measurement": "change in concentration of DHEA with time", "setting": "[1]; 10 minutes, 30 minutes, 1 hour, 2 hours, 5 hours, overnight", "result": "no change in concentration of DHEA with time"}, {"measurement": "remaining solids after dissolution experiment", "setting": "[1]; after overnight experiment", "result": "DHEA form S2 (monohydrate)"}, {"measurement": "time for transformation of anhydrate to monohydrate to be complete", "setting": "[1]; aqueous dissolution study", "result": "about 2 hours"}, {"measurement": "solubility", "setting": "[1]; pH 6.8 phosphate buffer, pH 6.8, aqueous buffer, thermodynamic from solid, read-out: solubility", "result": "~30", "unit": "µg/mL"}]}
{"smiles": "C[C@]12CC[C@H](O)CC1=CC[C@@H]1[C@@H]2CC[C@]2(C)C(=O)CC[C@@H]12", "note": "[DHEA, Dehydroepiandrosterone]", "values": [{"measurement": "solubility thermodynamic", "setting": "[3]", "result": "120 to 130", "unit": "µg/mL"}]}
